According to ChEMBL document CHEMBL1125975, “Enzymic and nonenzymic lipid peroxidation: inhibition by substituted phenoxazines” (Bioorg Med Chem Lett, 1991):
In brackets after ≈: the same amount, converted by molar mass.

organism: Oryctolagus cuniculus; assay: Minimum concentration of compound was evaluated for inhibiting iron-dependent lipid peroxidation of rabbit brain homogenate in vitro; type: functional

| Structure (SMILES) | MIC |
| --- | --- |
| O=C(O)c1ccc2c(c1)Nc1ccccc1O2 | 0.44 µM (≈ 0.1 µg/mL) |
| CN(O)C(=O)/C=C/c1ccc2c(c1)Nc1ccccc1O2 | 0.35 µM (≈ 0.0988 µg/mL) |
| COC(=O)c1cccc2c1Nc1ccccc1O2 | 4.2 µM (≈ 1.01 µg/mL) |
| CN(O)C(=O)c1ccc2c(c1)Nc1ccccc1O2 | 0.65 µM (≈ 0.167 µg/mL) |
| O=C(O)c1cccc2c1Nc1ccccc1O2 | 4.4 µM (≈ 1 µg/mL) |
| O=C(NO)c1ccc2c(c1)Nc1ccccc1O2 | 0.41 µM (≈ 0.0993 µg/mL) |
| COc1ccc2c(c1C(=O)NO)Nc1ccccc1O2 | 3.7 µM (≈ 1.01 µg/mL) |
| COc1ccc2c(c1C(=O)O)Nc1ccccc1O2 | 9.1 µM (≈ 2.34 µg/mL) |

These reach a lower MIC. Values come first.

| MIC | Structure (SMILES) |
| --- | --- |
| 0.19 µM (≈ 0.0534 µg/mL) | CCOC(=O)/C=C/c1ccc2c(c1)Nc1ccccc1O2 |
| 0.22 µM (≈ 0.0531 µg/mL) | COC(=O)c1ccc2c(c1)Nc1ccccc1O2 |
| 0.12 µM (≈ 0.0304 µg/mL) | O=C(O)/C=C/c1ccc2c(c1)Nc1ccccc1O2 |
| 0.055 µM (≈ 0.0101 µg/mL) | c1ccc2c(c1)Nc1ccccc1O2 [PHENOXAZINE] |
